The values below come from publication PMC5082894 (PLoS ONE, 2016).

Data set [1] in a line: Cytotoxicity by MTT method (MAGI cells). It is filed as cell-based. Conditions: human, HeLa CD4/CCR5-LTR/β-gal cells (MAGI cells); MTT, mean of triplicate ± SD. As to the method: (§1) Briefly, target cells (HeLa CD4/CCR5-LTR/β-gal; 10^4/well) were plated in 96-well flat microtiter culture plates. […] The test drugs were added initially and viruses were immediately inoculated onto the cells. Forty-eight hours after viral exposure, all blue cells in each well were counted. The cytotoxicity of the compound was determined by the MTT method as previously described. All experiments were performed in triplicate and AZT was used as reference anti-HIV-1 molecule.

The test system of data set [2] is HeLa CD4/CCR5-LTR/β-gal cells. Kind of data set: Cytotoxicity by MTT method (MAGI cells). It is filed as cell-based. The conditions noted are these: concentrations up to 100 μg/ml (115.7 μM). As to the method:
as §1

A further data set deals with HIV-1 92UG029 (A-X4). As to the kind of experiment: PBMC antiviral assay (RT activity), HIV-1 92UG029. It is filed as cell-based. The conditions noted are these: Human immunodeficiency virus 1, PBMC, 168 h; PHA-P-activated PBMCs, 125 TCID50, day 7, RT activity. As to the method:
In order to confirm antiretroviral activity of the compounds, using a cell model closer to the pathophysiology, Peripheral Blood Mononuclear Cells (PBMCs) were separated from a buffy-coat from healthy HIV-, HCV-, HBV-seronegative blood donors by Ficoll-Hypaque density gradient centrifugation. The PBMCs were activated by incubation with 1 μg/ml phytohemagglutinin-P (PHA-P; Difco Laboratories) for three days in RPMI 1640 medium supplemented with 10% heat-inactivated fetal calf serum (FCS, +56 ◦C for 45 min), 2mM l-glutamine and a 1% antibiotic cocktail (penicillin, streptomycin, neomycin). After this mitogen activation, PBMCs were cultivated in the same culture medium supplemented with recombinant human interleukin-2 (rHuIL-2; 20 IU/mL) and treated and/or infected. […] All these viruses were amplified in vitro with PHA-P-activated blood mononuclear cells and 50% tissue culture infectious doses (TCID50) were calculated using Kärber’s formula [37], after limited-dilution titration. […] Viral replication was measured by quantifying reverse transcriptase (RT) activity in the cell culture supernatants using the Lenti RT Activity Kit (Cavidi) and AZT was used as reference anti-HIV-1 molecule. EC50 were then calculated and expressed in μM.

In data set [3] the test system is HIV-1 reference strains and clinical isolates. As to the kind of experiment: PBMC antiviral assay, whole panel of strains. It is filed as cell-based.
Description: The PBMCs were activated by incubation with 1 μg/ml phytohemagglutinin-P (PHA-P; Difco Laboratories) for three days in RPMI 1640 medium supplemented with 10% heat-inactivated fetal calf serum (FCS, +56 ◦C for 45 min), 2mM l-glutamine and a 1% antibiotic cocktail (penicillin, streptomycin, neomycin). After this mitogen activation, PBMCs were cultivated in the same culture medium supplemented with recombinant human interleukin-2 (rHuIL-2; 20 IU/mL) and treated and/or infected. PBMCs were infected either with the reference lymphotropic (-X4) HIV-1 LAI strain [35], the reference macrophage-tropic (-R5) HIV-1 BaL strain [36] or with 4 different clinical isolates (subtype A, B or C). All these viruses were amplified in vitro with PHA-P-activated blood mononuclear cells and 50% tissue culture infectious doses (TCID50) were calculated using Kärber’s formula [37], after limited-dilution titration. […] Cell supernatants were collected at day 7 post-infection and stored at -20°C. Viral replication was measured by quantifying reverse transcriptase (RT) activity in the cell culture supernatants using the Lenti RT Activity Kit (Cavidi) and AZT was used as reference anti-HIV-1 molecule. EC50 were then calculated and expressed in μM. […]
In another data set the target is T1, MN gp120-CD4 interaction (Human immunodeficiency virus type 1 group M subtype B, UniProt P05877).
T1 construct: HIV-1 gp120 was injected over the immobilized CD4; purchased Immunodiagnostics (Massachusetts, USA)
It is filed as binding, HIV-1. Conditions: SPR, immobilized CD4, data not shown. Here is the method: (§2) For that purpose, CM4 sensorchips were activated with 50 μL of 0.2 M N-ethyl-N’-([…])-carbodiimide (EDC) and 0.05 M N-hydroxy-succimide (NHS) at 5 μL/min. Then soluble CD4 (10 μg/mL in 10 mM acetate buffer, pH 5), streptavidin (200 μg/mL in 10 mM acetate buffer, pH 4.2), mAb 17b (5 μg/mL in 10 mM acetate buffer, pH 5), MN gp120 (50 μg/ml in 5 mM maleate buffer, pH 6) or YU2 gp120 (50μg/mL in 10 mM acetate buffer, pH 4.8) were injected at 5 μL/min over one of the EDC/NHS activated flow cell until levels of 1200 (for sCD4), 700 (for mAb 17b), 3000 (for streptavidin), or 4500 (for gp120s) response units (RU) were achieved. HS (1 mM in phosphate-buffered saline) was biotinylated through its reducing end by reductive amination with 10 mM of biotin-LC-Hydrazine (Pierce) and captured on the streptavidin surface (20 μg/mL in 10 mM Hepes buffer pH 7.4 and 0.3 M NaCl) to a level of 60–80 RU as described. Surfaces were then blocked with 1M ethanolamine (pH 8.5) for 5 minutes. […]
(§3) The specific binding responses in resonance unit (RU) for MN- (A) and YU2- (B) gp120 were recorded as a function of time (s). […] The specific binding responses in resonance unit (RU) for MN- (C, E) and YU2- (D, F) gp120 were recorded as a function of time (s), and after each injection, the surface was regenerated by a short pulse of 10 mM HCl.

Data set [4] deals with T2, YU2 gp120-CD4 interaction (Human immunodeficiency virus type 1 group M subtype B, UniProt P35961).
T2 construct: HIV-1 gp120 was injected over the immobilized CD4; purchased Immunodiagnostics (Massachusetts, USA)
It is filed as binding, HIV-1. The conditions noted are these: SPR, immobilized CD4, data not shown. As to the method:
as §2, §3

The next data set relates to HIV-1 NL4-3. Kind of data set: MAGI assay, HIV-1 NL4-3. It is filed as cell-based. Conditions: Human immunodeficiency virus 1, NL43, MAGI cells. Here is the method:
as §1

Data set [5] deals with T3, MN gp120 binding to heparan sulfate (HS) (Human immunodeficiency virus type 1 group M subtype B, UniProt P05877).
T3 construct: MN gp120 (50 μg/ml in 5 mM maleate buffer, pH 6); purchased Immunodiagnostics (Massachusetts, USA)
Kind of data set: biochemical. More on the design: species or system HIV-1. As to the method: (§4) For that purpose, CM4 sensorchips were activated with 50 μL of 0.2 M N-ethyl-N’-([…])-carbodiimide (EDC) and 0.05 M N-hydroxy-succimide (NHS) at 5 μL/min. Then soluble CD4 (10 μg/mL in 10 mM acetate buffer, pH 5), streptavidin (200 μg/mL in 10 mM acetate buffer, pH 4.2), mAb 17b (5 μg/mL in 10 mM acetate buffer, pH 5), MN gp120 (50 μg/ml in 5 mM maleate buffer, pH 6) or YU2 gp120 (50μg/mL in 10 mM acetate buffer, pH 4.8) were injected at 5 μL/min over one of the EDC/NHS activated flow cell until levels of 1200 (for sCD4), 700 (for mAb 17b), 3000 (for streptavidin), or 4500 (for gp120s) response units (RU) were achieved. HS (1 mM in phosphate-buffered saline) was biotinylated through its reducing end by reductive amination with 10 mM of biotin-LC-Hydrazine (Pierce) and captured on the streptavidin surface (20 μg/mL in 10 mM Hepes buffer pH 7.4 and 0.3 M NaCl) to a level of 60–80 RU as described. Surfaces were then blocked with 1M ethanolamine (pH 8.5) for 5 minutes.
(§5) CD4, mAb 17b and gp120 surfaces were regenerated by 1 min injection of 10 mM HCl and the HS surface was regenerated with a 1 min injection of 0.05% SDS followed by a 3 min injection of 2 M NaCl.

Another data set concerns the target T4, YU2 gp120 (R5-tropic) (Human immunodeficiency virus type 1 group M subtype B, UniProt P35961).
T4 construct: YU2 gp120 (50μg/mL in 10 mM acetate buffer, pH 4.8); purchased Immunodiagnostics (Massachusetts, USA)
It is filed as binding, HIV-1. Conditions: SPR, 0 to 25 μM injected. Here is the method: as §4, §5
(§6) In order to evaluate the potential anti-viral properties of cinnamon, we first underwent a series of biochemical binding experiments using surface plasmon resonance. […]

A further data set addresses T5, MN gp120 (X4-tropic) (Human immunodeficiency virus type 1 group M subtype B, UniProt P05877).
T5 construct: MN gp120 (50 μg/ml in 5 mM maleate buffer, pH 6); purchased Immunodiagnostics (Massachusetts, USA)
It is filed as binding, HIV-1. The conditions noted are these: SPR, 0 to 25 μM injected. As to the method:
as §4, §5, §6

A further data set can be described thus: Cytotoxicity in PBMCs. It is filed as cell-based, human. Conditions: human, PHA-P-activated peripheral blood mononuclear cells (PBMCs).

Regarding `Oc1cc(O)c2c(c1)O[C@@]1(c3ccc(O)c(O)c3)Oc3cc(O)c4c(c3[C@@H]2[C@H]1O)O[C@H](c1ccc(O)c(O)c1)[C@H](O)[C@H]4c1c(O)cc(O)c2c1O[C@H](c1ccc(O)c(O)c1)[C@H](O)C2` [IND02-trimer, cinnamtannin B1], the CC50 in [1] was 96 ± 4 µM; in “Cytotoxicity in PBMCs”, 23 ± 2 µM. In data set [2], the cytotoxicity entry is recorded as “did not show cytotoxicity”. The EC50 was 2300 nM in the data set with HIV-1 92UG029 (A-X4); 0.8 to 7 µM in data set [3] (Human immunodeficiency virus 1, PBMC, read-out: EC50 over the panel of strains); 2.8 µg/mL in the data set with HIV-1 NL4-3; 3.2 ± 1.4 µM with HIV-1 NL4-3 (48 h, mean of triplicate ± SD). Moreover, the “ED50 against a range of clinical isolates from different clades” value in [3] (PBMCs) fell in the range of 1 to 7 µM. The “inhibition of MN envelope binding to CD4” value on MN gp120-CD4 interaction is on record as “did not show a significant inhibition”. In data set [4], the “inhibition of YU2 envelope binding to CD4” value was “did not show a significant inhibition”. Moreover, in data set [5], the 50% inhibitory concentration (IC50) amounted to 7.5 ± 3.5 µM. Besides, at YU2 gp120 (R5-tropic), the “binding to immobilized YU2 gp120” value is given as “gave binding signals”. On MN gp120 (X4-tropic), the “binding to immobilized MN gp120” value is listed as “gave binding signals”.
